Reference: patent US11147792B2, “Inhibitors of microbially induced amyloid” (Axial Therapeutics, Inc, priority 2017, dated 2021)

biological target: T1, E. coli CsgA (Escherichia coli, UniProt P28307); test: In vitro ThioflavinT assay of CsgA aggregation; type: biochemical; conditions: compounds at 20 μM
T1 construct: made in house; host or cells: E. coli NEB 3016 slyD::kan, pET11d
Description: In Vitro ThioflavinT Assay to Determine Effects of Compounds on CsgA Aggregation.
To assess the effects of compounds on aggregation of E. coli CsgA, a cell-free assay was performed using purified CsgA and Thioflavin T. In the assay, histidine-tagged CsgA was over-expressed in E. coli NEB 3016 slyD::kan cells harboring a pET11d vector containing csgA with the sequence for 6 histidine residues added to the C-terminus and without the Sec signal (amino acid 1-22) sequence. To induce over-expression of CsgA, 0.5 mM isopropyl β-D-1-thiogalactopyranoside (“IPTG”) was added to cultures with an optical density at 600 nm (OD600) of 0.8-1, and induced cells were cultured at 37° C. for 1 hour prior to harvest via centrifugation. Cells were lysed under denaturing conditions with 8 M guanidine hydrochloride in 50 mM potassium phosphate buffer pH 7.3, and CsgA was purified via immobilized-metal affinity chromatography by batch purification with Nickel-NTA agarose and a combination of low pressure and gravity flow through a disposable polypropylene column, including washes under low pressure applied manually via application of a syringe plunger to the column with 50 mM potassium phosphate buffer pH 7.3 followed by 12.5 mM imidazole in 50 mM potassium phosphate buffer pH 7.3, and elution by gravity flow with 125 mM imidazole in 50 mM potassium phosphate buffer pH 7.3. Buffers with imidazole were freshly prepared prior to the protein purification. Purified CsgA was passed through a 30 kDa molecular weight cut-off filter and passed through a desalting column. All steps of the CsgA purification in the absence of guanidine hydrochloride were conducted in rapid succession with as little delay as possible. The assay was conducted in 96-well black microplates with 40 μM ThioflavinT, 1% DMSO, CsgA at 20 μM, and compounds at 20 μM. Plates were incubated at 25° C. in a Tecan Nano F200 plate reader with excitation at 438 nm using a 439 nm filter with a bandwidth of 8 nm, and emission at 495 nm with a 490 nm filter with a bandwidth of 10 nm. During the assay, plates were shaken initially for 5 seconds and subsequently for 3 seconds prior to fluorescent readings. Readings were performed every 20 minutes for up to 24 hours. The effect of compounds on CsgA aggregation in the assay was determined with data from 18 hours, following the plateau of the fluorescent signal in the untreated (no compound) control wells containing CsgA. Fluorescence values for each compound with CsgA were first adjusted by subtracting the average fluorescence of the compound in the absence of CsgA. These adjusted values were normalized by dividing them by the average fluorescence in the no-compound (i.e., untreated) control wells containing CsgA […], and the average normalized fluorescence with the compound was expressed as a percentage of the average fluorescence observed in untreated controls.

T1 sequence (P28307 23-151): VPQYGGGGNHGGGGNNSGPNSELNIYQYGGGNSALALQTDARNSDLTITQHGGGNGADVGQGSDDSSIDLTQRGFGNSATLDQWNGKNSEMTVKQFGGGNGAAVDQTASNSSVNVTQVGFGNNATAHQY

Row | Compound | Effect on CsgA aggregation (in words)
1 | CCCCCCCCCCCCOC(=O)c1cc(O)c(O)c(O)c1 [lauryl gallate, dodecyl 3,4,5-trihydroxybenzoate] | did not appear to inhibit CsgA aggregation
2 | CCc1ccc(O)c(OC)c1 [4-ethyl guaiacol, 4-ethyl-2-methoxyphenol] | relatively strong enhancement of CsgA aggregation
3 | C=CCc1ccc(O)c(OC)c1 [eugenol, 2-methoxy-4-(prop-2-en-1-yl)phenol] | without notable inhibition
4 | Brc1cccc(-c2cc(-c3ccc4c(c3)OCO4)n[nH]2)c1 [Anle 138b, reference compound] | relatively little to no effect

same assay, conditions: compounds at 20 μM; CsgA at 20 μM; ThT fluorescence at 18 hours; 20 µM

Row | Compound | Inhibition of Aggregation CsgA (compound activity range)
5 | Cc1ccc(C(C)C)cc1O [carvacrol, 2-methyl-5-(propan-2-yl)phenol] | − ((−) is between −10% to 10% inhibition)
6 | COc1cc(O)ccc1O [methoxy-hydroquinone, 2-methoxybenzene-1,4-diol] | (++) to (+++)
7 | O=C(O)c1cc(O)c(O)c(O)c1 [gallic acid, 3,4,5-trihydroxybenzoic acid] | (++) to (+++)
8 | Oc1ccc(/C=C/c2cc(O)cc(O)c2)cc1 [resveratrol, (E)-5-(4-hydroxystyryl)benzene-1,3-diol] | (+++) to (++)

same assay, conditions: read-out: Inhibition of Aggregation CsgA (compound activity range), compounds at 20 μM; CsgA at 20 μM; ThT fluorescence at 18 hours

Row | Compound | inhibition at 20 µM
9 | CCCCCCCCCCCCOC(=O)c1cc(O)c(O)c(O)c1 [lauryl gallate, dodecyl 3,4,5-trihydroxybenzoate] | -10 to 10%
10 | COc1cc(O)ccc1O [methoxy-hydroquinone, 2-methoxybenzene-1,4-diol] | 30 to 60%
11 | O=C(O)c1cc(O)c(O)c(O)c1 [gallic acid, 3,4,5-trihydroxybenzoic acid] | > 60%
12 | Brc1cccc(-c2cc(-c3ccc4c(c3)OCO4)n[nH]2)c1 [Anle 138b, reference compound] | -10 to 10%
13 | Oc1ccc(/C=C/c2cc(O)cc(O)c2)cc1 [resveratrol, (E)-5-(4-hydroxystyryl)benzene-1,3-diol] | > 60%

same assay, conditions: read-out: Inhibition of Aggregation CsgA, compounds at 20 μM; CsgA at 20 μM; ThT fluorescence at 18 hours

Row | Compound | inhibition at 20 µM
14 | CCCCCCCCCCCCOC(=O)c1cc(O)c(O)c(O)c1 [lauryl gallate, dodecyl 3,4,5-trihydroxybenzoate] | 1%
15 | Cc1ccc(C(C)C)cc1O [carvacrol, 2-methyl-5-(propan-2-yl)phenol] | -20%
16 | CCc1ccc(O)c(OC)c1 [4-ethyl guaiacol, 4-ethyl-2-methoxyphenol] | -82%
17 | C=CCc1ccc(O)c(OC)c1 [eugenol, 2-methoxy-4-(prop-2-en-1-yl)phenol] | -10%
18 | COc1cc(O)ccc1O [methoxy-hydroquinone, 2-methoxybenzene-1,4-diol] | 50%
19 | O=C(O)c1cc(O)c(O)c(O)c1 [gallic acid, 3,4,5-trihydroxybenzoic acid] | 82%
20 | Brc1cccc(-c2cc(-c3ccc4c(c3)OCO4)n[nH]2)c1 [Anle 138b, reference compound] | 9%
21 | Oc1ccc(/C=C/c2cc(O)cc(O)c2)cc1 [resveratrol, (E)-5-(4-hydroxystyryl)benzene-1,3-diol] | 62%

biological target: T2, α-synuclein seeded by E. coli CsgA (Homo sapiens, UniProt P37840); test: In vitro Thioflavin T assay of CsgA-seeded α-synuclein aggregation; type: biochemical; conditions: compounds at 50 μM
T2 construct: made in house; host or cells: E. coli NEB 3016 slyD::kan (CsgA, pET11d); E. coli (α-synuclein)
Description: In Vitro Thioflavin T Assay to Determine the Effects of Compounds on CsgA-Seeded α-Synuclein Aggregation.
To induce over-expression of CsgA, 0.5 mM IPTG was added to cultures with an optical density at 600 nm (OD600) of 0.8-1, and induced cells were cultured at 37° C. for 1 hour prior to harvest via centrifugation. […] Buffers with imidazole were freshly prepared prior to the protein purification. Purified CsgA was passed through a 30 kDa molecular weight cut-off filter and through a desalting column. All steps of the CsgA purification in the absence of guanidine hydrochloride were conducted in rapid succession with as little delay as possible. […] The ammonium sulfate pellet was washed with an equal volume of 100 mM ammonium acetate in ethanol, pelleted via centrifugation, washed twice with ethanol, dried overnight, resuspended in 10 mM Tris pH 7.4, and passed through a 50 kDa cut-off column. The assay was conducted in 96-well black microplates with a single glass 2 mm bead per well, 40 μM ThioflavinT, 1% DMSO, 2 μM CsgA, 50 μM α-synuclein, 100 mM sodium chloride, 9.3 mM potassium phosphate pH 7.3, and compounds at 50 μM. […] The effect of compounds on CsgA-seeded α-synuclein aggregation in the assay was determined with data from 40 hours, following the plateau of the fluorescent signal in the untreated (no compound) control wells containing CsgA and α-synuclein. Fluorescence values for each compound with CsgA and α-synuclein were first adjusted by subtracting the average fluorescence of the compound in the absence of CsgA and α-synuclein.

Row | Compound | Effect on CsgA-seeded α-synuclein aggregation (in words)
22 | C=CCc1ccc(O)c(OC)c1 [eugenol, 2-methoxy-4-(prop-2-en-1-yl)phenol] | demonstrated inhibition

same assay, conditions: compounds at 50 μM; 2 μM CsgA, 50 μM α-synuclein; ThT fluorescence at 40 hours

Row | Compound | Inhibition of Aggregation CsgA-seeded αSyn (compound activity range)
23 | CCCCCCCCCCCCOC(=O)c1cc(O)c(O)c(O)c1 [lauryl gallate, dodecyl 3,4,5-trihydroxybenzoate] | +%

same assay, conditions: compounds at 50 μM; 2 μM CsgA, 50 μM α-synuclein; ThT fluorescence at 40 hours; read-out: Inhibition of Aggregation CsgA-seeded αSyn

Row | Compound | inhibition at 50 µM
24 | CCCCCCCCCCCCOC(=O)c1cc(O)c(O)c(O)c1 [lauryl gallate, dodecyl 3,4,5-trihydroxybenzoate] | 24%
25 | COc1cc(O)ccc1O [methoxy-hydroquinone, 2-methoxybenzene-1,4-diol] | 80%
26 | O=C(O)c1cc(O)c(O)c(O)c1 [gallic acid, 3,4,5-trihydroxybenzoic acid] | 63%

same assay, conditions: compounds at 50 μM; 2 μM CsgA, 50 μM α-synuclein; ThT fluorescence at 40 hours; read-out: Inhibition of Aggregation CsgA-seeded αSyn (compound activity range)

Row | Compound | inhibition at 50 µM
27 | CCCCCCCCCCCCOC(=O)c1cc(O)c(O)c(O)c1 [lauryl gallate, dodecyl 3,4,5-trihydroxybenzoate] | 10 to 30%

same assay, conditions: read-out: Inhibition of Aggregation CsgA-seeded αSyn

Row | Compound | inhibition at 50 µM
28 | Cc1ccc(C(C)C)cc1O [carvacrol, 2-methyl-5-(propan-2-yl)phenol] | -2%
29 | CCc1ccc(O)c(OC)c1 [4-ethyl guaiacol, 4-ethyl-2-methoxyphenol] | -10%
30 | C=CCc1ccc(O)c(OC)c1 [eugenol, 2-methoxy-4-(prop-2-en-1-yl)phenol] | 42%

same assay, conditions: read-out: Inhibition of Aggregation CsgA-seeded αSyn (compound activity range)

Row | Compound | inhibition at 50 µM
31 | CCc1ccc(O)c(OC)c1 [4-ethyl guaiacol, 4-ethyl-2-methoxyphenol] | 30 to 60%
32 | C=CCc1ccc(O)c(OC)c1 [eugenol, 2-methoxy-4-(prop-2-en-1-yl)phenol] | 30 to 60%

biological target: T3, human α-synuclein (Homo sapiens, UniProt P37840); test: In vitro Thioflavin T assay of α-synuclein aggregation; type: biochemical; conditions: compounds at 1 μM; 50 μM α-synuclein; ThT fluorescence at 40 hours; read-out: Inhibition of Aggregation αSyn
T3 construct: made in house; host or cells: E. coli
Description: In Vitro Thioflavin T Assay to Determine the Effects of Compounds on α-Synuclein Aggregation.
The ammonium sulfate pellet was washed with an equal volume of 100 mM ammonium acetate in ethanol, pelleted via centrifugation, washed twice with ethanol, dried overnight, resuspended in 10 mM Tris pH 7.4, and passed through a 50 kDa cut-off column. The assay was conducted in 96-well black microplates with a single 2 mm bead in each well, 40 μM ThioflavinT, 1% DMSO, 50 μM α-synuclein, 100 mM sodium chloride, 9.3 mM potassium phosphate pH 7.3, 4.6 mM Tris pH 7.4 (added as the solvent for α-synuclein or independently for controls lacking α-synuclein), and compounds at 1 μM or 50 μM. […] Readings were performed hourly for up to 73 hours. The effect of compounds on α-synuclein aggregation in the assay was determined with data from 40 hours, following the plateau of the fluorescent signal in the untreated (no compound) control wells containing α-synuclein. Fluorescence values for each compound with α-synuclein were first adjusted by subtracting the average fluorescence of the compound in the absence of α-synuclein.

Row | Compound | inhibition at 1 µM
33 | Oc1ccc(/C=C/c2cc(O)cc(O)c2)cc1 [resveratrol, (E)-5-(4-hydroxystyryl)benzene-1,3-diol] | 86%

same assay, conditions: compounds at 1 μM; 50 μM α-synuclein; ThT fluorescence at 40 hours; read-out: Inhibition of Aggregation αSyn (compound activity range)

Row | Compound | inhibition at 1 µM
34 | Oc1ccc(/C=C/c2cc(O)cc(O)c2)cc1 [resveratrol, (E)-5-(4-hydroxystyryl)benzene-1,3-diol] | > 60%

same assay, conditions: compounds at 50 μM

Row | Compound | Effect on α-synuclein aggregation (in words)
35 | C=CCc1ccc(O)c(OC)c1 [eugenol, 2-methoxy-4-(prop-2-en-1-yl)phenol] | without notable inhibition

same assay, conditions: compounds at 50 μM; 50 μM α-synuclein; ThT fluorescence at 40 hours; read-out: Inhibition of Aggregation αSyn

Row | Compound | inhibition at 50 µM
36 | CCCCCCCCCCCCOC(=O)c1cc(O)c(O)c(O)c1 [lauryl gallate, dodecyl 3,4,5-trihydroxybenzoate] | 33%
37 | CCc1ccc(O)c(OC)c1 [4-ethyl guaiacol, 4-ethyl-2-methoxyphenol] | -2%
38 | COc1cc(O)ccc1O [methoxy-hydroquinone, 2-methoxybenzene-1,4-diol] | 100%
39 | O=C(O)c1cc(O)c(O)c(O)c1 [gallic acid, 3,4,5-trihydroxybenzoic acid] | 99%

same assay, conditions: compounds at 50 μM; 50 μM α-synuclein; ThT fluorescence at 40 hours; read-out: Inhibition of Aggregation αSyn (compound activity range)

Row | Compound | inhibition at 50 µM
40 | CCCCCCCCCCCCOC(=O)c1cc(O)c(O)c(O)c1 [lauryl gallate, dodecyl 3,4,5-trihydroxybenzoate] | 30 to 60%
41 | CCc1ccc(O)c(OC)c1 [4-ethyl guaiacol, 4-ethyl-2-methoxyphenol] | -10 to 10%
42 | COc1cc(O)ccc1O [methoxy-hydroquinone, 2-methoxybenzene-1,4-diol] | > 60%
43 | O=C(O)c1cc(O)c(O)c(O)c1 [gallic acid, 3,4,5-trihydroxybenzoic acid] | > 60%

same assay, conditions: read-out: Inhibition of Aggregation αSyn

Row | Compound | inhibition at 50 µM
44 | Cc1ccc(C(C)C)cc1O [carvacrol, 2-methyl-5-(propan-2-yl)phenol] | 2%
45 | C=CCc1ccc(O)c(OC)c1 [eugenol, 2-methoxy-4-(prop-2-en-1-yl)phenol] | -1%

same assay, conditions: read-out: Inhibition of Aggregation αSyn (compound activity range)

Row | Compound | inhibition at 50 µM
46 | Cc1ccc(C(C)C)cc1O [carvacrol, 2-methyl-5-(propan-2-yl)phenol] | -10 to 10%
47 | C=CCc1ccc(O)c(OC)c1 [eugenol, 2-methoxy-4-(prop-2-en-1-yl)phenol] | -10 to 10%
